Source: patent US20200215099A1, “NON-ANTICOAGULANT SULFATED OR SULFONATED POLYSACCHARIDES” (Baxalta Incorporated, priority 2012, published 2020)
Converted amounts (≈) assume the structure as drawn. “Also recorded” adds a separate entry of the source. Like-named read-outs stand apart in the source and are kept apart here.

Tests used:
FVIII-inhibited plasma = assay: Thrombin generation assay (CAT) in FVIII-inhibited plasma; type: biochemical, human; details: for EC50: half maximal thrombin peak
Procedure: The procoagulant activity of the sulfated polysaccharides was assessed by the Thrombin Generation Assay (TGA). The influence of each sulfated polysaccharide on thrombin generation was measured in duplicate via CAT in a Fluoroskan Ascent® reader (Thermo Labsystems, Helsinki, Finland; filters 390 nm excitation and 460 nm emission) following the slow cleavage of the fluorogenic substrate Z-Gly-GIy-Arg-AMC (Hemker H C. Pathophysiol Haemost Thromb (2003) 33(4):15). To each well of a 96 well microplate (Immulon 2HB, clear U-bottom; Thermo Electron) 80 μL of pre-warmed (37° C.) goat anti FVIII antibody treated human normal plasma pool was added. For triggering thrombin generation by tissue factor, 104 of PPP reagent containing a certain amount of recombinant human tissue factor (rTF) and phospholipid vesicles composed of phosphatidylserine, phosphatidylcholine and phosphatidylethanolamine (final concentration of 4 μM) (Thrombinoscope BV, Maastricht, The Netherlands) was added. For studying the procoagulant activity of sulfated polymers a final TF concentration of 1 pM was used to provide FVIII and TFPI sensitivity of the test system. Just prior to putting the plate into the pre-warmed (37° C.) reader, 10 µL of test or reference sample or calibrator compound was added. Thrombin generation was started by dispensing 204 of FluCa reagent (Thrombinoscope BV, Maastricht, The Netherlands) containing fluorogenic substrate and Hepes buffered CaCl2 (100 mM) into each well and fluorescence intensity was recorded at 37° C.
The parameters of the resulting thrombin generation curves were calculated using the Thrombinoscope™ software (Thrombinoscope BV, Maastricht, The Netherlands) and thrombin calibrator to correct for inner filter and substrate consumption effects (Hemker H C, Pathophysiol Haemost Thromb (2003) 33(4):15). With the thrombin calibrator as a reference, the molar concentration of thrombin in the test wells was calculated by the software. The thrombin amounts at the peak and peak times of each thrombin generation curve (peak thrombin, nM) were plotted against sulfated polysaccharide concentrations resulting in the procoagulant profile of these compounds. The thrombin generation assay results are illustrated in the figures appended hereto. From these plots half maximal effective concentrations (EC50) values are determined using a sigmoidal curve fit. The EC50 represents the concentration at which the half maximal thrombin peak is reached.

full-length TFPI = target: T1, full-length TFPI (Homo sapiens, UniProt P10646); assay: Dilute prothrombin time assay with added TFPI (TFPI-dPT); type: biochemical; details: for reversal of the effect of rec. FL-TFPI (in words): normal human plasma; for EC50 TFPI-dPT: normal human plasma with rec. FL-TFPI
T1 construct: 0.5 μg/mL full-length TFPI (aa 1-276, constitutively produced by SKHep1); made in house; host or cells: SKHep1
T1 sequence (P10646 29-304): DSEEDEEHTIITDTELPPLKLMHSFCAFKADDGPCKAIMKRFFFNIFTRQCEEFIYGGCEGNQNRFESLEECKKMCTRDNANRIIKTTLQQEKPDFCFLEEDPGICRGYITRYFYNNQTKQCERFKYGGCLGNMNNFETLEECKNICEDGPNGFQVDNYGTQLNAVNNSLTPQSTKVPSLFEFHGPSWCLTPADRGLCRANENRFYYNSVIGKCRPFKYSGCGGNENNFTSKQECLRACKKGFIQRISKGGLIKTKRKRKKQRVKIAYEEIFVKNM
Procedure: A dilute prothrombin time assay with added TFPI (TFPI-dPT) was used to evaluate the TFPI-inhibiting effect of the different NASPs. Pooled normal human plasma (George King Biomedical, Overland Park, Kans.) was pre-incubated with 0.5 μg/mL full-length TFPI (aa 1-276, constitutively produced by SKHep1) and the respective NASP (0-5 μg/mL) for 15 min at RT. TF reagent TriniClot PT Excel S (Trinity Biotech, Wicklow, Ireland), diluted in Hepes-buffered saline 1:200 with 0.5% BSA was added to the plasma samples on an ACL Pro Elite hemostasis analyzer (Instrumentation Laboratory, Bedford, Mass.). Clotting was initiated with 25 mM CaCl2). The volume ratio of plasma:TF:CaCl2 was 1:1:1.
For data analysis, TFPI-dPT is plotted against the log concentration. Half maximal effective concentrations (EC50) values are determined using a sigmoidal curve fit.

[1] = tested on: FVIII-inhibited human whole blood; assay: Rotation thromboelastometry (ROTEM); details: ROTEM, 0.044 pM TF
Procedure: NASPs (0.4-11 μg/mL) were studied in fresh citrated human whole blood by rotation thromboelastometry (ROTEM), an assay that allows continuous visco-elastic assessment of whole blood clot formation and firmness. Blood was incubated with anti-human FVIII plasma raised in goat (Baxter Bioscience, Austria) at 50 BU/mL to simulate hemophilic conditions. Clotting was triggered with 0.044 pM tissue factor (TF) (PRP reagent, Thrombinoscope BV) in the presence of 40 μg/mL CTI (Haematologic Technologies Inc., Essex Junction, Vt., USA). Then 300 μL of the pre-warmed (37° C.) FVIII-inhibited blood was recalcified with 20 μL of a 0.2 M CaCl2 solution. Clot formation was monitored using a ROTEM instrument (Pentapharm Munich, Germany) at 37° C. The final assay concentration of rTF was 44 fM. The ROTEM recording was started immediately and measured for at least 120 min. Each blood sample was analyzed in two independent measurements.
The thromboelastographic parameters of clotting time (CT), clot formation time (CFT) and maximum clot firmness (MCF) were recorded in accordance with the manufacturer's instructions. The first derivative of the thromboelastogram data is plotted to obtain a graph of velocity (mm/s) against time (s). From this graph, the maximum velocity (maxV) and the time at which the maximum velocity is reached (maxV-t) are also determined.

normal human plasma = assay: Activated partial thromboplastin time assay (aPTT); type: biochemical; details: for Ratio aPTT/CAT: 50% increase clotting time / CAT EC50; for anticoagulant activity (in words): aPTT compared with procoagulant CAT concentration; for 50% Increase Clotting Time: concentration where clotting time is 50% increased over normal plasma control
Procedure: The aPTT assay was performed to study anticoagulant activities of NASP. In brief, 50 μL of thawed normal human plasma pool (George King Biomedical, Overland Park, Kans.) was mixed with 5 μL of NASP sample (0-60 μg/mL final plasma concentration). NASPs were diluted in imidazole buffer (3.4 g/L imidazole; 5.85 g/L NaCl, pH 7.4) containing 1% albumin (Baxter, Austria). After addition of 50 μL aPTT reagent (STA APTT, Roche) the samples were incubated for 4 min at 37° C. Clotting was initiated by 50 μL of 25 mM CaCl2 solution (Baxter, Austria) and recorded for up to 5 min. All pipetting steps and clotting time measurements were carried out with an ACL Pro Elite (Instrumentation Laboratory, Bedford, Mass.) instrument. Samples were run in duplicate.
For data analysis, clotting time is plotted against the NASP concentration. Concentrations where the clotting time is 50% increased over the normal plasma control are determined using a linear curve fit.

contact pathway = assay: CAT in normal plasma with and without CTI; type: biochemical; details: for concentration activating the contact pathway: normal plasma, 1 pM hTF, 4 μM PL, ±41 μg/mL CTI

Cellotriose
EC50 (FVIII-inhibited plasma; 1 pM hTF, 4 μM PL): 30.9 µg/mL

Cellopentaose
procoagulant activity (in words) (FVIII-inhibited plasma): substantial procoagulant activity | EC50 (FVIII-inhibited plasma; 1 pM hTF, 4 μM PL): 1.9 µg/mL

6-carboxyicodextrin [reference compound]
procoagulant activity (in words) (FVIII-inhibited plasma): not procoagulant

sulfated β-cyclodextrin [β-Cyclodextrin (Sigma)]
reversal of the effect of rec. FL-TFPI (in words) (full-length TFPI): reverses the effect of rec. FL-TFPI in plasma | EC50 TFPI-dPT (full-length TFPI): 0.08 µg/mL | restoration of coagulation (in words) [1]: restore coagulation parameters of FVIII-inhibited whole blood | restoration of coagulation (in words) ([1]; listed as sulfated β-cyclodextrin (18.9% S)): restores coagulation to normal in FVIII-inhibited blood | Ratio aPTT/CAT (normal human plasma): 5.1 | anticoagulant activity (in words) (normal human plasma): become anticoagulant within their procoagulant window | 50% Increase Clotting Time (normal human plasma): 3.6 µg/mL | activation of the contact pathway (in words) (contact pathway): No activation of the contact pathway | concentration activating the contact pathway (contact pathway): > 33000 ng/mL | EC50 (FVIII-inhibited plasma; 1 pM hTF, 4 μM PL): 1.8 µg/mL | EC50 (FVIII-inhibited plasma; 1 pM hTF, 4 μM PL, listed as sulfated β-cyclodextrin): 0.7 µg/mL | EC50 (FVIII-inhibited plasma; 1 pM hTF, 4 μM PL, listed as β-cyclodextrin): about 2 μg/mL | procoagulant activity (in words) (FVIII-inhibited plasma; listed as sulfated β-cyclodextrin): good procoagulant activity | procoagulant activity (in words) (FVIII-inhibited plasma; listed as β-cyclodextrin): substantial procoagulant activity

Fucoidan [Fucoidan (Control), reference compound]
Ratio aPTT/CAT (normal human plasma): 23.3 | 50% Increase Clotting Time (normal human plasma): 7.0 µg/mL | EC50 (FVIII-inhibited plasma; 1 pM hTF, 4 μM PL): 0.3 µg/mL

α-cyclodextrin
procoagulant activity (in words) (FVIII-inhibited plasma): substantial procoagulant activity

sulfated 6-carboxy-icodextrin [6-carboxy-Icodextrin (unfractionated, batch 1)]
EC50 TFPI-dPT (full-length TFPI): 0.26 µg/mL | reversal of the effect of rec. FL-TFPI (in words) (full-length TFPI; listed as sulfated 6-carboxy-icodextrin (21.6 kDa, 10.6% S)): reverses the effect of rec. FL-TFPI in plasma | Ratio aPTT/CAT (normal human plasma): 80.0 | anticoagulant activity (in words) (normal human plasma): non-anticoagulant at its optimal procoagulant concentration | 50% Increase Clotting Time (normal human plasma): 3.2 µg/mL | EC50 (FVIII-inhibited plasma; 1 pM hTF, 4 μM PL, listed as sulfated 6-carboxyicodextrin (21.6 kDa, 10.6% S)): 0.04 µg/mL | procoagulant activity (in words) (FVIII-inhibited plasma; listed as sulfated 6-carboxyicodextrin (21.6 kDa, 10.6% S)): procoagulant at very low concentrations

xylohexaose
EC50 (FVIII-inhibited plasma; 1 pM hTF, 4 μM PL): 4.8 µg/mL

icodextrin [unsulfated icodextrin, reference compound]
procoagulant activity (in words) (FVIII-inhibited plasma): not procoagulant

Maltotetraose
procoagulant activity (in words) (FVIII-inhibited plasma): substantial procoagulant activity | EC50 (FVIII-inhibited plasma; 1 pM hTF, 4 μM PL): 5.0 µg/mL

sulfated 6-carboxy-icodextrin [6-carboxy-Icodextrin (unfractionated, batch 2)]
restoration of coagulation (in words) ([1]; listed as sulfated 6-carboxy-icodextrin (35 kDa; 10.1% S)): restores coagulation in human FVIII-inhibited blood | Ratio aPTT/CAT (normal human plasma): 57.0 | 50% Increase Clotting Time (normal human plasma): 4.0 µg/mL | EC50 (FVIII-inhibited plasma; 1 pM hTF, 4 μM PL, listed as sulfated 6-carboxyicodextrin (35 kDa, 10.1% S)): 0.07 µg/mL | procoagulant activity (in words) (FVIII-inhibited plasma; listed as sulfated 6-carboxyicodextrin (35 kDa, 10.1% S)): procoagulant at very low concentrations

sulfated maltopentaose [Maltopentaose (Baxter)]
EC50 TFPI-dPT (full-length TFPI): 0.15 µg/mL | reversal of the effect of rec. FL-TFPI (in words) (full-length TFPI; listed as sulfated maltopentaose (15% S)): reverses the effect of rec. FL-TFPI in plasma; also recorded: reverses the effect of recombinant Full Length-Tissue Factor Pathway Inhibitor | restoration of coagulation (in words) [1]: restore coagulation parameters of FVIII-inhibited whole blood | restoration of coagulation (in words) ([1]; listed as sulfated maltopentose (15% S)): restores coagulation to normal in FVIII-inhibited blood | Ratio aPTT/CAT (normal human plasma): 1.4 | anticoagulant activity (in words) (normal human plasma): become anticoagulant within their procoagulant window | 50% Increase Clotting Time (normal human plasma): 3.3 µg/mL | activation of the contact pathway (in words) (contact pathway): No activation of the contact pathway | concentration activating the contact pathway (contact pathway): > 33000 ng/mL | procoagulant activity (in words) (FVIII-inhibited plasma): good procoagulant activity | EC50 (FVIII-inhibited plasma; 1 pM hTF, 4 μM PL): 2.4 µg/mL

stachyose
procoagulant activity (in words) (FVIII-inhibited plasma): substantial procoagulant activity | EC50 (FVIII-inhibited plasma; 1 pM hTF, 4 μM PL): 2.3 µg/mL

Maltotriose
EC50 (FVIII-inhibited plasma; 1 pM hTF, 4 μM PL): 20.6 µg/mL

OC[C@H]1O[C@@](CO)(O[C@H]2O[C@H](CO)[C@@H](O)[C@H](O)[C@H]2O)[C@@H](O[C@H]2O[C@H](CO)[C@@H](O)[C@H](O)[C@H]2O)[C@@H]1O [melezitose]
EC50 (FVIII-inhibited plasma; 1 pM hTF, 4 μM PL): 13.5 µg/mL (≈ 26.8 µM)

Maltopentaose
procoagulant activity (in words) (FVIII-inhibited plasma): substantial procoagulant activity | EC50 (FVIII-inhibited plasma; 1 pM hTF, 4 μM PL): about 2 μg/mL | EC50 (FVIII-inhibited plasma; 1 pM hTF, 4 μM PL, listed as maltopentose): 2.1 µg/mL

sulfated xylan [sulfated xylan (14.7% S, 22 kD)]
procoagulant activity (in words) (FVIII-inhibited plasma): procoagulant at low concentrations | procoagulant at (concentration) (FVIII-inhibited plasma; 37° C., 1 pM hTF, 4 μM PL): about 0.01 μg/mL | EC50 (FVIII-inhibited plasma; 1 pM hTF, 4 μM PL): 0.1 µg/mL | procoagulant activity (in words) (FVIII-inhibited plasma; listed as Sulfated xylan): good procoagulant activity in CAT assays at very low concentrations

OC[C@H]1O[C@H](OC[C@H]2O[C@H](O[C@]3(CO)O[C@H](CO)[C@@H](O)[C@@H]3O)[C@H](O)[C@@H](O)[C@@H]2O)[C@H](O)[C@@H](O)[C@H]1O [raffinose]
EC50 (FVIII-inhibited plasma; 1 pM hTF, 4 μM PL): 7.4 µg/mL (≈ 14.7 µM)

Cellotetraose
EC50 (FVIII-inhibited plasma; 1 pM hTF, 4 μM PL): 4.8 µg/mL
